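Compound exposure: 48 hours, 5 concentrations, 96-well plates. TGI: concentration producing complete growth inhibition.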
What was measured:
Assay in all cases: NCI tumour cell line growth inhibition, 48 h
[1] = system: UACC-62 melanoma
[2] = system: SNB-19 CNS
[3] = system: SK-MEL-28 melanoma
[4] = system: RXF 393 renal
[5] = system: EKVX NSCLC
[6] = system: OVCAR-5 ovarian
[7] = system: NCI-H226 lung
[8] = system: KM12 colon
[9] = system: M14 melanoma
[10] = system: RPMI-8226 leukemia
[11] = system: LOX IMVI melanoma
[12] = system: HCC-2998 colon
[13] = system: NCI-H460 lung
[14] = system: SF-539 CNS
[15] = system: SK-OV-3 ovarian
[16] = system: HS 578T breast
[17] = system: HCT-116 colon
[18] = system: MALME-3M melanoma
[19] = system: HL-60(TB) leukemia
[20] = system: IGROV1 ovarian
[21] = system: MOLT-4 leukemia
[22] = system: HOP-92 NSCLC
[23] = system: CCRF-CEM leukemia
[24] = system: NCI-H522 lung
[25] = system: SF-268 CNS
[26] = system: UACC-257 melanoma
[27] = system: BT-549 breast
[28] = system: NCI-H23 lung
[29] = system: SF-295 CNS
[30] = system: OVCAR-4 ovarian
[31] = system: OVCAR-3 ovarian
[32] = system: UO-31 renal
[33] = system: T-47D breast
[34] = system: SNB-75 CNS
[35] = system: 786-0 renal
[36] = system: SK-MEL-5 melanoma
[37] = system: MDA-N
[38] = system: A549 NSCLC
[39] = system: SK-MEL-2 melanoma
[40] = system: SW-620 colon
[41] = system: MDA-MB-435
[42] = system: OVCAR-8 ovarian
[43] = system: A498 renal
[44] = system: HT29 colon
[45] = system: U251 CNS
[46] = system: DU-145 prostate
[47] = system: TK-10 renal
[48] = system: HOP-62 NSCLC
[49] = system: HCT-15 colon
[50] = system: SN12C renal
[51] = system: NCI/ADR-RES ovarian
[52] = system: SR leukemia
[53] = system: ACHN renal
[54] = system: MCF7 breast
[55] = system: K-562 leukemia
[56] = system: MDA-MB-231 breast
[57] = system: PC-3 prostate
[58] = system: CAKI-1 renal
[59] = system: COLO 205 colon

COC(=O)c1ccc(C)cc1CC1Cc2c(C)cccc2C1=O (centres undefined)
TGI [1]: 22 µM | TGI [2]: 89.7 µM | TGI [3]: 84.7 µM | TGI [4]: 34.3 µM | TGI [5]: 73.5 µM | TGI [6]: > 100 µM | TGI [7]: 37.4 µM | TGI [8]: 16.1 µM | TGI [9]: > 54.1 µM | TGI [10]: 30.3 µM | TGI [11]: 32.2 µM | TGI [12]: 25.2 µM | TGI [13]: > 78.3 µM | TGI [14]: 22.3 µM | TGI [15]: 43.2 µM | TGI [16]: 34 µM | TGI [17]: 15.4 µM | TGI [18]: 45.1 µM | TGI [19]: 24.2 µM | TGI [20]: 80.1 µM | TGI [21]: > 47.2 µM | TGI [22]: 46.8 µM | TGI [23]: 62.2 µM | TGI [24]: 22.8 µM | TGI [25]: 44.7 µM | TGI [26]: 49 µM | TGI [27]: 21.1 µM | TGI [28]: > 46.6 µM | TGI [29]: > 52.8 µM | TGI [30]: > 91.9 µM | TGI [31]: 16.1 µM | TGI [32]: 66.4 µM | TGI [33]: > 100 µM | TGI [34]: 20.9 µM | TGI [35]: 34.8 µM | TGI [36]: 19.7 µM | TGI [37]: 4.82 µM | TGI [38]: > 60.5 µM | TGI [39]: 17.5 µM | TGI [40]: > 48.7 µM | TGI [41]: 4.38 µM | TGI [42]: > 68.8 µM | TGI [43]: 24 µM | TGI [44]: 11.1 µM | TGI [45]: 20.8 µM | TGI [46]: > 81.9 µM | TGI [47]: > 54.6 µM | TGI [48]: > 53.4 µM | TGI [49]: 12.7 µM | TGI [50]: 28.2 µM | TGI [51]: 17.2 µM | TGI [52]: > 100 µM | TGI [53]: > 94.3 µM | TGI [54]: 7.93 µM | TGI [55]: > 34.4 µM | TGI [56]: 8.42 µM | TGI [57]: > 34.6 µM | TGI [58]: 30.8 µM | TGI [59]: 17 µM
